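Exposure lasted 48 hours, with cells grown in 96-well plates and compounds tested at five concentrations. TGI denotes the concentration required for complete inhibition of growth.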
tested on: SW-620 colon; test: growth of human tumour cells (NCI), 48 h

Compound | TGI [µM]
CC#CC#C/C=C1/O[C@]2(CCC(OC(=O)CC(C)C)CO2)[C@@H]2O[C@H]12 (some centres undefined) | 43.7
O=C(CSc1nc2ccccc2c2ccccc12)c1ccccc1 | > 100
CN(C)C1C(=O)C(C(=O)NCN2CCCC2)=C(O)C2(O)C(=O)C3=C(O)c4c(O)cccc4C(C)(O)C3CC12 (centres undefined) | > 100
O=C1C(Cl)C(c2cc3cc(Br)ccc3nc2Cl)N1c1ccc(F)c(Cl)c1 (centres undefined) | 33
COCOc1cc(OCOC)cc(C(=O)Oc2ccccc2)c1 | > 100

tested on: RXF 393 renal; test: growth of human tumour cells (NCI), 48 h

Compound | TGI [µM]
CC#CC#C/C=C1/O[C@]2(CCC(OC(=O)CC(C)C)CO2)[C@@H]2O[C@H]12 (some centres undefined) | 42.2
O=C(CSc1nc2ccccc2c2ccccc12)c1ccccc1 | > 100
CN(C)C1C(=O)C(C(=O)NCN2CCCC2)=C(O)C2(O)C(=O)C3=C(O)c4c(O)cccc4C(C)(O)C3CC12 (centres undefined) | > 100
O=C1C(Cl)C(c2cc3cc(Br)ccc3nc2Cl)N1c1ccc(F)c(Cl)c1 (centres undefined) | 17.3
COCOc1cc(OCOC)cc(C(=O)Oc2ccccc2)c1 | > 100

tested on: HCT-116 colon; test: growth of human tumour cells (NCI), 48 h

Compound | TGI [µM]
CC#CC#C/C=C1/O[C@]2(CCC(OC(=O)CC(C)C)CO2)[C@@H]2O[C@H]12 (some centres undefined) | 33.3
O=C(CSc1nc2ccccc2c2ccccc12)c1ccccc1 | > 100
CN(C)C1C(=O)C(C(=O)NCN2CCCC2)=C(O)C2(O)C(=O)C3=C(O)c4c(O)cccc4C(C)(O)C3CC12 (centres undefined) | > 100
O=C1C(Cl)C(c2cc3cc(Br)ccc3nc2Cl)N1c1ccc(F)c(Cl)c1 (centres undefined) | 18.9
COCOc1cc(OCOC)cc(C(=O)Oc2ccccc2)c1 | > 100

tested on: SK-MEL-5 melanoma; test: growth of human tumour cells (NCI), 48 h

Compound | TGI [µM]
O=C(CSc1nc2ccccc2c2ccccc12)c1ccccc1 | > 100
CN(C)C1C(=O)C(C(=O)NCN2CCCC2)=C(O)C2(O)C(=O)C3=C(O)c4c(O)cccc4C(C)(O)C3CC12 (centres undefined) | > 100
O=C1C(Cl)C(c2cc3cc(Br)ccc3nc2Cl)N1c1ccc(F)c(Cl)c1 (centres undefined) | 19.8
COCOc1cc(OCOC)cc(C(=O)Oc2ccccc2)c1 | > 100

tested on: HOP-62 NSCLC; test: growth of human tumour cells (NCI), 48 h

Compound | TGI [µM]
CC#CC#C/C=C1/O[C@]2(CCC(OC(=O)CC(C)C)CO2)[C@@H]2O[C@H]12 (some centres undefined) | > 100
O=C(CSc1nc2ccccc2c2ccccc12)c1ccccc1 | > 100
CN(C)C1C(=O)C(C(=O)NCN2CCCC2)=C(O)C2(O)C(=O)C3=C(O)c4c(O)cccc4C(C)(O)C3CC12 (centres undefined) | > 100
O=C1C(Cl)C(c2cc3cc(Br)ccc3nc2Cl)N1c1ccc(F)c(Cl)c1 (centres undefined) | 6.39
COCOc1cc(OCOC)cc(C(=O)Oc2ccccc2)c1 | > 100

tested on: SK-OV-3 ovarian; test: growth of human tumour cells (NCI), 48 h

Compound | TGI [µM]
CC#CC#C/C=C1/O[C@]2(CCC(OC(=O)CC(C)C)CO2)[C@@H]2O[C@H]12 (some centres undefined) | > 100
CN(C)C1C(=O)C(C(=O)NCN2CCCC2)=C(O)C2(O)C(=O)C3=C(O)c4c(O)cccc4C(C)(O)C3CC12 (centres undefined) | > 100
O=C1C(Cl)C(c2cc3cc(Br)ccc3nc2Cl)N1c1ccc(F)c(Cl)c1 (centres undefined) | 26.9
COCOc1cc(OCOC)cc(C(=O)Oc2ccccc2)c1 | > 100

tested on: MCF7 breast; test: growth of human tumour cells (NCI), 48 h

Compound | TGI [µM]
CC#CC#C/C=C1/O[C@]2(CCC(OC(=O)CC(C)C)CO2)[C@@H]2O[C@H]12 (some centres undefined) | > 100
O=C(CSc1nc2ccccc2c2ccccc12)c1ccccc1 | > 100
CN(C)C1C(=O)C(C(=O)NCN2CCCC2)=C(O)C2(O)C(=O)C3=C(O)c4c(O)cccc4C(C)(O)C3CC12 (centres undefined) | > 100
O=C1C(Cl)C(c2cc3cc(Br)ccc3nc2Cl)N1c1ccc(F)c(Cl)c1 (centres undefined) | 20.1
COCOc1cc(OCOC)cc(C(=O)Oc2ccccc2)c1 | > 100

tested on: HS 578T breast; test: growth of human tumour cells (NCI), 48 h

Compound | TGI [µM]
CC#CC#C/C=C1/O[C@]2(CCC(OC(=O)CC(C)C)CO2)[C@@H]2O[C@H]12 (some centres undefined) | > 100
O=C(CSc1nc2ccccc2c2ccccc12)c1ccccc1 | 0.0967
CN(C)C1C(=O)C(C(=O)NCN2CCCC2)=C(O)C2(O)C(=O)C3=C(O)c4c(O)cccc4C(C)(O)C3CC12 (centres undefined) | > 100
O=C1C(Cl)C(c2cc3cc(Br)ccc3nc2Cl)N1c1ccc(F)c(Cl)c1 (centres undefined) | 75
COCOc1cc(OCOC)cc(C(=O)Oc2ccccc2)c1 | > 100

tested on: HOP-92 NSCLC; test: growth of human tumour cells (NCI), 48 h

Compound | TGI [µM]
CC#CC#C/C=C1/O[C@]2(CCC(OC(=O)CC(C)C)CO2)[C@@H]2O[C@H]12 (some centres undefined) | 66
O=C(CSc1nc2ccccc2c2ccccc12)c1ccccc1 | > 100
CN(C)C1C(=O)C(C(=O)NCN2CCCC2)=C(O)C2(O)C(=O)C3=C(O)c4c(O)cccc4C(C)(O)C3CC12 (centres undefined) | > 100
O=C1C(Cl)C(c2cc3cc(Br)ccc3nc2Cl)N1c1ccc(F)c(Cl)c1 (centres undefined) | 2.72
COCOc1cc(OCOC)cc(C(=O)Oc2ccccc2)c1 | > 100

tested on: SN12C renal; test: growth of human tumour cells (NCI), 48 h

Compound | TGI [µM]
CC#CC#C/C=C1/O[C@]2(CCC(OC(=O)CC(C)C)CO2)[C@@H]2O[C@H]12 (some centres undefined) | 41.2
O=C(CSc1nc2ccccc2c2ccccc12)c1ccccc1 | > 100
CN(C)C1C(=O)C(C(=O)NCN2CCCC2)=C(O)C2(O)C(=O)C3=C(O)c4c(O)cccc4C(C)(O)C3CC12 (centres undefined) | > 100
O=C1C(Cl)C(c2cc3cc(Br)ccc3nc2Cl)N1c1ccc(F)c(Cl)c1 (centres undefined) | 20.5
COCOc1cc(OCOC)cc(C(=O)Oc2ccccc2)c1 | > 100

tested on: NCI-H23 lung; test: growth of human tumour cells (NCI), 48 h

Compound | TGI [µM]
CC#CC#C/C=C1/O[C@]2(CCC(OC(=O)CC(C)C)CO2)[C@@H]2O[C@H]12 (some centres undefined) | 60
O=C(CSc1nc2ccccc2c2ccccc12)c1ccccc1 | > 100
CN(C)C1C(=O)C(C(=O)NCN2CCCC2)=C(O)C2(O)C(=O)C3=C(O)c4c(O)cccc4C(C)(O)C3CC12 (centres undefined) | > 100
O=C1C(Cl)C(c2cc3cc(Br)ccc3nc2Cl)N1c1ccc(F)c(Cl)c1 (centres undefined) | 19
COCOc1cc(OCOC)cc(C(=O)Oc2ccccc2)c1 | > 100

tested on: MDA-MB-435; test: growth of human tumour cells (NCI), 48 h

Compound | TGI [µM]
CC#CC#C/C=C1/O[C@]2(CCC(OC(=O)CC(C)C)CO2)[C@@H]2O[C@H]12 (some centres undefined) | 60.4
O=C(CSc1nc2ccccc2c2ccccc12)c1ccccc1 | > 100
CN(C)C1C(=O)C(C(=O)NCN2CCCC2)=C(O)C2(O)C(=O)C3=C(O)c4c(O)cccc4C(C)(O)C3CC12 (centres undefined) | > 100
O=C1C(Cl)C(c2cc3cc(Br)ccc3nc2Cl)N1c1ccc(F)c(Cl)c1 (centres undefined) | 17.7
COCOc1cc(OCOC)cc(C(=O)Oc2ccccc2)c1 | > 100

tested on: SNB-75 CNS; test: growth of human tumour cells (NCI), 48 h

Compound | TGI [µM]
CC#CC#C/C=C1/O[C@]2(CCC(OC(=O)CC(C)C)CO2)[C@@H]2O[C@H]12 (some centres undefined) | > 100
O=C(CSc1nc2ccccc2c2ccccc12)c1ccccc1 | 57.9
CN(C)C1C(=O)C(C(=O)NCN2CCCC2)=C(O)C2(O)C(=O)C3=C(O)c4c(O)cccc4C(C)(O)C3CC12 (centres undefined) | > 100
O=C1C(Cl)C(c2cc3cc(Br)ccc3nc2Cl)N1c1ccc(F)c(Cl)c1 (centres undefined) | 21.4
COCOc1cc(OCOC)cc(C(=O)Oc2ccccc2)c1 | > 100

tested on: CAKI-1 renal; test: growth of human tumour cells (NCI), 48 h

Compound | TGI [µM]
CC#CC#C/C=C1/O[C@]2(CCC(OC(=O)CC(C)C)CO2)[C@@H]2O[C@H]12 (some centres undefined) | 34.7
O=C(CSc1nc2ccccc2c2ccccc12)c1ccccc1 | > 100
CN(C)C1C(=O)C(C(=O)NCN2CCCC2)=C(O)C2(O)C(=O)C3=C(O)c4c(O)cccc4C(C)(O)C3CC12 (centres undefined) | > 100
COCOc1cc(OCOC)cc(C(=O)Oc2ccccc2)c1 | > 100

tested on: SF-268 CNS; test: growth of human tumour cells (NCI), 48 h

Compound | TGI [µM]
CC#CC#C/C=C1/O[C@]2(CCC(OC(=O)CC(C)C)CO2)[C@@H]2O[C@H]12 (some centres undefined) | 54.1
O=C(CSc1nc2ccccc2c2ccccc12)c1ccccc1 | > 100
